Results: PubChem BioAssay AID1159562 (GlaxoSmithKline (GSK), 2015)
Active and inactive are the calls of the source. The rule behind the calls is not given here.

These compounds were tested on Trypanosoma brucei growth inhibition, luminescence (assay: Trypanosoma brucei growth inhibition, luminescence (AID 1159562);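 note: parasites grew with compound for 24 h before the luminescence read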).
`CC(C)c1nn(-c2nc(N)nc(-c3ccccn3)n2)c(N)c1C1CCCCC1` showed an IC50 of 7900 nM.
For `CNc1cc(Cn2c(C(=O)c3cc(C)cc(Cl)c3)c(C(C)C)c(=O)[nH]c2=O)ccn1`, the IC50 was 25000 nM.
Compound `C=CCN(Cc1cccs1)C(=O)CSc1nnc(-c2ccc3c(c2)OCO3)o1` has an IC50 of 40000 nM.
In the case of `CN(Cc1cc2ccccc2s1)c1ncc2c(N)nc(N)nc2n1`, the IC50 is reported as 25000 nM.
`COc1ccc(-c2nc3ccncc3c(=O)n2CCOc2ccccc2)cc1` gave an IC50 of 32000 nM.
Work on `CCNc1cc(-c2ccccn2)nc(Nc2ccccc2)n1` yielded an IC50 of 13000 nM.
`c1ccc2[nH]c(-c3ccc(N4CCCC4)nc3)nc2c1` gave an IC50 of 1000 nM.
`CC(=O)Nc1ccc(Nc2nccc(-c3cnn4ncccc34)n2)cc1C(F)(F)F` was tested, and the IC50 was 50 nM.
With `CN(C)Cc1ccc(N2CCC(NS(=O)(=O)c3ccc(Cl)cc3)CC2)cc1` the IC50 was 32000 nM.
`CC(=O)NC1(c2ccccc2)CCN(CC(=O)Nc2ccccc2-c2ccccc2)CC1` was tested, and the IC50 was 500 nM.
For `CNC(=O)Oc1ccc(C(=O)NCc2ccccc2)cc1OC(=O)NC`, the IC50 was 400 nM.
With `CNc1cc(C)nc(C2CN(C(=O)c3n[nH]c4ccccc34)CCO2)c1` (configuration not stated) the IC50 was > 40000 nM (inactive).
Compound `O=c1[nH]cnc2c([C@@H]3O[C@H](CO)[C@@H](O)[C@H]3O)[nH]nc12` has an IC50 of 5 nM.
For `Cc1ccc(Nc2nc(C3CCCN3Cc3ccn[nH]3)cs2)nc1` (configuration not stated), the IC50 was 4000 nM.
With `Cn1nc([N+](=O)[O-])nc1Oc1ccc(C(=O)c2ccccc2)cc1` the IC50 was > 40000 nM (inactive).
Work on `O=C(Nc1ccc(-c2nc3ccccc3c(=O)[nH]2)cc1)c1cccs1` yielded an IC50 of 1000 nM.
Work on `CC(C)(C)c1csc(NC(=O)c2ccc([N+](=O)[O-])s2)n1` yielded an IC50 of 1600 nM.
With `CCOc1ccc(OCC(=O)N2c3ccccc3CC2C(=O)NC)cc1` (configuration not stated) the IC50 was 790 nM.
For `O=C(Cn1cnc2cc([N+](=O)[O-])ccc2c1=O)NCCc1ccc(Cl)cc1Cl`, the IC50 was > 40000 nM (inactive).
In the case of `COc1ncc(-c2ccc3nccc(-c4ccncc4)c3c2)cc1NS(=O)(=O)C1CC1`, the IC50 is reported as 400 nM.
With `CCCn1c(NC(=O)CCn2cc(Br)cn2)nc2ccccc21` the IC50 was 7900 nM.
In the case of `Cc1c([N+](=O)[O-])c(C(=O)Nc2sc3c(c2C#N)CCC(C)C3)nn1C` (configuration not stated), the IC50 is reported as > 40000 nM (inactive).
Work on `O=C(NCCc1nc(-c2ccc(F)c(F)c2)n[nH]1)C1CCCCC1` yielded an IC50 of 1000 nM.
In the case of `Oc1cccnc1-c1n[nH]c(Cc2ccccc2)n1`, the IC50 is reported as 10000 nM.
Work on `C[C@@H](Oc1cc(-n2cnc3ccc(O[C@H]4CCNC4)cc32)sc1C(N)=O)c1ccccc1Cl` yielded an IC50 of 790 nM.
`CCCCn1c(=O)c2c(N)onc2n(CCCC)c1=O` was tested, and the IC50 was 500 nM.
For `NC(=O)c1cc(NC(=O)c2ccccc2COc2ccccc2)ccc1Cl`, the IC50 was > 40000 nM (inactive).
In the case of `Cc1c(C(=O)NCCCCn2ccnc2)oc2c(C)cccc12`, the IC50 is reported as > 40000 nM (inactive).
`O=C(c1cccc(Nc2ncc(-c3ccc4c(c3)OCO4)cn2)c1)N1CCSC1` was tested, and the IC50 was > 40000 nM (inactive).
For `CCC(=O)Nc1ccc(C(=O)Nc2ccccc2-c2ccccc2)cc1`, the IC50 was 25000 nM.
`O=S(=O)(NCC(c1cccnc1)N1CCN(c2ccccc2F)CC1)c1ccc(F)cc1` (configuration not stated) was tested, and the IC50 was > 40000 nM (inactive).
`O=C(NCC1CCCCC1)c1cnns1` showed an IC50 of 1300 nM.
For `O=c1[nH]ccc2ccc(-c3ccncc3)cc12`, the IC50 was > 40000 nM (inactive).
Work on `Cc1cc(NC(=O)C2CC2)ccc1OC1CCN(Cc2ccco2)CC1` yielded an IC50 of 250 nM.
With `Cn1nccc1-c1cc(OC(CN)c2ccccc2)cnc1-c1ccco1` (configuration not stated) the IC50 was 16000 nM.
For `Cc1nn(C)c(Cl)c1CN(Cc1cccnc1)Cc1ccsc1`, the IC50 was > 40000 nM (inactive).
With `O=c1cc(CSc2ccc(Cl)cc2)nc(-c2ccccn2)[nH]1` the IC50 was 1000 nM.
For `CN1CCCN(C(=O)c2ccc(N3CCCC3)cc2Cl)CC1`, the IC50 was > 40000 nM (inactive).
`N#Cc1ccc(C(=O)Nc2cccc(-c3cccc(CN4CCC(O)CC4)c3)c2)cc1` was tested, and the IC50 was 790 nM.
`CN1CCC(N(C)c2nccc(N3CCN(C(=O)c4cccc(-c5cccnc5)c4)CC3)n2)CC1` gave an IC50 of 1000 nM.
`Cc1cccnc1CN1CCN(CCCOc2ccc(-c3ccc(C(N)=O)cc3)cc2)CC1` was tested, and the IC50 was > 40000 nM (inactive).
For `O=C(COc1ncnc2cc([N+](=O)[O-])ccc12)NC(=O)NC1CCCCC1`, the IC50 was > 40000 nM (inactive).
`Cc1cn[nH]c1C1CCCN(Cc2nc3ccccc3n2C)C1` (configuration not stated) was tested, and the IC50 was 7900 nM.
`CC1=C(C(=O)Nc2ccc(Cl)cc2)C(c2ccncc2)n2ncc(C(=O)Nc3ccccc3)c2N1` (configuration not stated) was tested, and the IC50 was > 40000 nM (inactive).
`COc1cccc(-c2c(C)nn(-c3nc(N)nc(-c4ccccn4)n3)c2N)c1` was tested, and the IC50 was > 40000 nM (inactive).
`COc1cccc(S(=O)(=O)Nc2ccc3c(c2)CC(N2CCC(NC(=O)C4CC4)CC2)C3)c1` (configuration not stated) was tested, and the IC50 was 790 nM.
`Cc1cnc(Nc2cc(Cc3ccccc3)nc(NC3CCC(O)CC3)n2)s1` (configuration not stated) gave an IC50 of 40 nM.
In the case of `CC1CN(Cc2ccc(C#N)cc2)CCN1c1ccc(NC(=O)c2ccccc2F)cc1` (configuration not stated), the IC50 is reported as > 40000 nM (inactive).
`CCn1c(-c2nonc2N)nc2c([C@@H](C)O)ncc(O[C@H](CN)c3ccccc3)c21` gave an IC50 of 790 nM.
`Cc1[nH]nc2c1C(c1ccc(OCc3ccccc3F)cc1)SCC(=O)N2` (configuration not stated) was tested, and the IC50 was > 40000 nM (inactive).
With `Cc1cc(Nc2cc(C3CC3)[nH]n2)nc(N2CCCC2)n1` the IC50 was 63 nM.
Work on `Cc1cc(C)n(-c2nc(NC(C)C)nc(NC(C)(C)C)n2)n1` yielded an IC50 of 13000 nM.
With `COc1ccc(C(C)(C)C)cc1S(=O)(=O)n1ccnc1` the IC50 was > 40000 nM (inactive).
`O=C(Nc1cccc(S(=O)(=O)Nc2ccc(Br)cc2)c1)c1ccc([N+](=O)[O-])s1` showed an IC50 of 400 nM.
With `O=C(CCc1ccc(-c2ccccc2)o1)N1CCN(c2ccc(O)cc2)CC1` the IC50 was 40000 nM.
Compound `CN(Cc1nc2c(C(=O)N3CCN(Cc4ccccc4)CC3)cccc2[nH]1)C1CCCc2cccnc21` (configuration not stated) has an IC50 of 1000 nM.
In the case of `Cc1nnnn1-c1cccc(C(=O)N2CCC[C@@]3(C)c4ncncc4CCC23)c1` (some centres not stated), the IC50 is reported as > 40000 nM (inactive).
With `COc1ccc(C(C)N(C)c2ncc3c(N)nc(N)nc3n2)cc1F` (configuration not stated) the IC50 was 5000 nM.
For `Cc1ccc(C)c(OC2CCN(C(=O)C(C)n3ccnc3)CC2)c1` (configuration not stated), the IC50 was > 40000 nM (inactive).
For `CCc1cc(C(=O)Nc2nccn2-c2ccccc2)cs1`, the IC50 was 4000 nM.
With `COc1ccc(C(=O)Nc2ccc(NC(=O)CO)cc2)cc1` the IC50 was 250 nM.
For `CN(C)CCN(C)Cc1ccc(F)cc1NS(=O)(=O)c1ccc(Cl)c(Cl)c1`, the IC50 was 5000 nM.
Work on `O=C(Nc1ccc(S(=O)(=O)N2CCCC2)cc1)c1ccc([N+](=O)[O-])s1` yielded an IC50 of 200 nM.
`CCN(CC)S(=O)(=O)c1ccc(C)c(NC(=O)c2cc(Cl)c3c(c2)OCO3)c1` showed an IC50 of 160 nM.
`COc1cc(Cl)c(C)cc1NC(=O)c1ccc([N+](=O)[O-])s1` was tested, and the IC50 was 10000 nM.
`Cc1cc(-c2cccc3ccccc23)nc2nc(N)nc(N)c12` showed an IC50 of 20000 nM.
`COc1ccc(-c2csc(NC(=O)c3ccc([N+](=O)[O-])s3)n2)cc1` showed an IC50 of 790 nM.
In the case of `CC(Cn1ccnc1)NC(=O)COc1ccc(Cl)c(Cl)c1` (configuration not stated), the IC50 is reported as > 40000 nM (inactive).
`COc1ccc(-c2csc(NC(=O)c3ccc([N+](=O)[O-])s3)n2)cc1OC` showed an IC50 of 630 nM.
In the case of `COc1cnc2ccc(=O)n(CCN3CCC(NC/C=C/c4cc(F)ccc4F)CC3)c2c1`, the IC50 is reported as 790 nM.
`O=S1N=C(NCCCN(Cc2ccc(F)cc2)c2ccccn2)C(NCc2ccncc2)=N1` (configuration not stated) showed an IC50 of 500 nM.
`NS(=O)(=O)c1ccc(Nc2ncc3cccc(OC4CCNCC4)c3n2)cc1` was tested, and the IC50 was 320 nM.
`COc1ccc(Nc2nc(NC3CCC(O)CC3)ncc2Br)c(C(N)=O)c1` (configuration not stated) was tested, and the IC50 was 250 nM.
With `COc1cc2c(cc1OC)[C@H]1[C@@H](C)c3ccc(OC)c(OC)c3CN1CC2` the IC50 was > 40000 nM (inactive).
In the case of `CNc1cncc(C2CCCN2C(=O)Cc2coc3cc(C)ccc23)n1` (configuration not stated), the IC50 is reported as > 40000 nM (inactive).
Compound `COc1ccc2ncc(=O)n(CCN3CCOC(CNCc4ccc(C(F)(F)F)cc4F)C3)c2n1` (configuration not stated) has an IC50 of 2500 nM.
For `COc1ccc(NC(=O)c2ccc(NC(=O)CN(c3ccccc3C)S(C)(=O)=O)cc2)cc1`, the IC50 was 790 nM.
With `Cc1ccc(NC(=O)C(C)n2nc([N+](=O)[O-])c(Br)c2C)cc1Cl` (configuration not stated) the IC50 was > 40000 nM (inactive).
Work on `NC(=O)c1cc(F)ccc1Nc1nc(NC2CCC(O)CC2)ncc1Cl` (configuration not stated) yielded an IC50 of 630 nM.
With `Cc1ccc2c(c1)-c1onc(C(=O)N3CCCCC3c3cccnc3)c1CO2` (configuration not stated) the IC50 was > 40000 nM (inactive).
`CC(C)(C)Nc1nc(Nc2ccc3c(c2)CS(=O)(=O)C3)nc2[nH]ccc12` was tested, and the IC50 was 5000 nM.
In the case of `CC(C)N(C(=O)CN1C(=O)C(N)C(=O)N(c2ccccc2)c2ccccc21)c1ccccc1` (configuration not stated), the IC50 is reported as > 40000 nM (inactive).
`Oc1c(-c2n[nH]c(CCc3ccccc3)n2)ncc2cccnc12` was tested, and the IC50 was 1600 nM.
For `COc1ccc(-c2nc3ncccc3o2)cc1NC(=O)c1cccs1`, the IC50 was 2500 nM.
With `O=C(CN1CCN(c2ccccn2)CC1)Nc1cc(S(=O)(=O)N2CCCCCC2)ccc1Cl` the IC50 was 25000 nM.
With `O=C(c1cccc(Cl)c1Cl)N1CCn2c1nc(-c1ccncc1)cc2=O` the IC50 was 32000 nM.
Compound `COCCn1cnc2cc(NC(=O)C3CCCCC3)cc(C(=O)N3CCc4sccc4C3)c21` has an IC50 of 1000 nM.
Compound `CC(C)C[C@H](NC(=O)c1ccc(-c2ccccc2)o1)C(=O)NC1(C#N)CC1` has an IC50 of 50 nM.
`COc1ccc(Nc2nc(-c3ccccn3)cc(N3CCCC(O)C3)n2)cc1` (configuration not stated) gave an IC50 of 13000 nM.
For `Clc1ccc(Sc2cnccc2N2CCOCC2)cc1`, the IC50 was > 40000 nM (inactive).
`CC(C)(C)C(=O)NCCc1csc(-c2ccc(F)cc2)n1` was tested, and the IC50 was 790 nM.
`Cc1ccc(CNC2CCN(C[C@@H]3Cn4c(=O)ccc5ccc(=O)n3c54)CC2)cc1F` gave an IC50 of 2000 nM.
`O=C(Cc1ccc2c(c1)CCC2)Nc1n[nH]c(-c2ccccn2)n1` was tested, and the IC50 was > 40000 nM (inactive).
`O=C(CC1(O)C(=O)N(Cc2ccccc2)c2ccc(Br)cc21)c1cccnc1` (configuration not stated) was tested, and the IC50 was 790 nM.
In the case of `O=C(Nc1cccc(F)c1)N1CCC(Oc2cccc(-c3cccnc3)c2)CC1`, the IC50 is reported as > 40000 nM (inactive).
`CN(CC1CCCO1)S(=O)(=O)c1ccc(C(=O)Nc2nc(-c3ccccn3)cs2)cc1` (configuration not stated) showed an IC50 of 630 nM.
With `CS(=O)(=O)c1ccc(Nc2nccc(Nc3n[nH]c4ccc(F)cc34)n2)c(F)c1` the IC50 was 790 nM.
For `O=C(Nc1nc(-c2ccc(F)cc2)cs1)c1ccc([N+](=O)[O-])s1`, the IC50 was 1300 nM.
`O=[N+]([O-])c1ccc(C2=CC(c3ccccc3)=NCCN2)cc1` was tested, and the IC50 was > 13000 nM (inactive).
For `Cc1ccc2sc(NC(=O)Cn3cnc([N+](=O)[O-])n3)nc2c1`, the IC50 was > 40000 nM (inactive).
In the case of `Cc1ccc(-c2csc(NC(=O)C=Cc3ccc(S(=O)(=O)N4CCOCC4)cc3)n2)o1`, the IC50 is reported as 5000 nM.
In the case of `Cc1[nH]nc(-c2nc3ccccc3[nH]2)c1C(=O)NC1CCCNC1` (configuration not stated), the IC50 is reported as 500 nM.
